Data as given in patent publication US12264156B2, “Compounds and pharmaceutical compositions thereof for the treatment of diseases” (GALAPAGOS NV, priority 2018, dated 2025).

Key:
SIK1 = molecular target: T1, SIK1 (Homo sapiens, UniProt P57059); assay: ADP-Glo kinase assay, SIK1; format: biochemical; details: ADP-Glo SIK kinase assay
T1 construct: purchased Carna Biosciences 02-131
How it was run: (§1)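 Wells with 1% DMSO or 10 μM staurosporine (final) define the control window. The kinase reaction with substrate and ATP runs 120 min at RT, followed by ADP-Glo detection: ATP depletion (40 min) and ADP-derived luminescence (30 min).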

SIK2 = molecular target: T2, SIK2 (Homo sapiens, UniProt Q9H0K1); assay: ADP-Glo kinase assay, SIK2; format: biochemical; details: ADP-Glo SIK kinase assay
T2 construct: purchased ThermoFisher Scientific PV4792
T2 sequence (Q9H0K1 whole entry): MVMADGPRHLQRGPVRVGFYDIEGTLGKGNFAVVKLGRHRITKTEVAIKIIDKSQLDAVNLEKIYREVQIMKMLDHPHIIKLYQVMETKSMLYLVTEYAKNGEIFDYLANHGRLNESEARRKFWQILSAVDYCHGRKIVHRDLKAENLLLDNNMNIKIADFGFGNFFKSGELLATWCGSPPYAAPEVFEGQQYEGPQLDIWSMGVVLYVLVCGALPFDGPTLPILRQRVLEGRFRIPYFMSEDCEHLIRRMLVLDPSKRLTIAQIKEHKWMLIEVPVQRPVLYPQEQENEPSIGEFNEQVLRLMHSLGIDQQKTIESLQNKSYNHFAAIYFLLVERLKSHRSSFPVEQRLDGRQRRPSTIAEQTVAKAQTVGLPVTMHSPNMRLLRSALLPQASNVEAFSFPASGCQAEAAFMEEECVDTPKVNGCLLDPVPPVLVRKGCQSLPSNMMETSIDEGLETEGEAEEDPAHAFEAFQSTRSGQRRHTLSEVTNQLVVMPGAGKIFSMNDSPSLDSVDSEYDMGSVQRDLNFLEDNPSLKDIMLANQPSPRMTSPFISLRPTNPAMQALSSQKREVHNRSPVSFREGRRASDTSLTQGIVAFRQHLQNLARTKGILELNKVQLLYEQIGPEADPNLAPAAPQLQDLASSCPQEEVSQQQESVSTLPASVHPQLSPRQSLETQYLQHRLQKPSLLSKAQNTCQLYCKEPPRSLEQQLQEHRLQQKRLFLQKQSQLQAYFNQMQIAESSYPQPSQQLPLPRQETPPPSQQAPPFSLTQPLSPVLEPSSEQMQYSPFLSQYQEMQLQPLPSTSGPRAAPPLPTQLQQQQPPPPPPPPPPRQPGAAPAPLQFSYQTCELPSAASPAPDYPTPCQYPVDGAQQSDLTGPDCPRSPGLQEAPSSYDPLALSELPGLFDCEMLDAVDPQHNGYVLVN
How it was run: as §1

SIK3 = molecular target: T3, SIK3 (Homo sapiens, UniProt Q9Y2K2); assay: ADP-Glo kinase assay, SIK3; format: biochemical; details: ADP-Glo SIK kinase assay
T3 construct: purchased SignalChem S12-11G-100
T3 sequence (Q9Y2K2 whole entry): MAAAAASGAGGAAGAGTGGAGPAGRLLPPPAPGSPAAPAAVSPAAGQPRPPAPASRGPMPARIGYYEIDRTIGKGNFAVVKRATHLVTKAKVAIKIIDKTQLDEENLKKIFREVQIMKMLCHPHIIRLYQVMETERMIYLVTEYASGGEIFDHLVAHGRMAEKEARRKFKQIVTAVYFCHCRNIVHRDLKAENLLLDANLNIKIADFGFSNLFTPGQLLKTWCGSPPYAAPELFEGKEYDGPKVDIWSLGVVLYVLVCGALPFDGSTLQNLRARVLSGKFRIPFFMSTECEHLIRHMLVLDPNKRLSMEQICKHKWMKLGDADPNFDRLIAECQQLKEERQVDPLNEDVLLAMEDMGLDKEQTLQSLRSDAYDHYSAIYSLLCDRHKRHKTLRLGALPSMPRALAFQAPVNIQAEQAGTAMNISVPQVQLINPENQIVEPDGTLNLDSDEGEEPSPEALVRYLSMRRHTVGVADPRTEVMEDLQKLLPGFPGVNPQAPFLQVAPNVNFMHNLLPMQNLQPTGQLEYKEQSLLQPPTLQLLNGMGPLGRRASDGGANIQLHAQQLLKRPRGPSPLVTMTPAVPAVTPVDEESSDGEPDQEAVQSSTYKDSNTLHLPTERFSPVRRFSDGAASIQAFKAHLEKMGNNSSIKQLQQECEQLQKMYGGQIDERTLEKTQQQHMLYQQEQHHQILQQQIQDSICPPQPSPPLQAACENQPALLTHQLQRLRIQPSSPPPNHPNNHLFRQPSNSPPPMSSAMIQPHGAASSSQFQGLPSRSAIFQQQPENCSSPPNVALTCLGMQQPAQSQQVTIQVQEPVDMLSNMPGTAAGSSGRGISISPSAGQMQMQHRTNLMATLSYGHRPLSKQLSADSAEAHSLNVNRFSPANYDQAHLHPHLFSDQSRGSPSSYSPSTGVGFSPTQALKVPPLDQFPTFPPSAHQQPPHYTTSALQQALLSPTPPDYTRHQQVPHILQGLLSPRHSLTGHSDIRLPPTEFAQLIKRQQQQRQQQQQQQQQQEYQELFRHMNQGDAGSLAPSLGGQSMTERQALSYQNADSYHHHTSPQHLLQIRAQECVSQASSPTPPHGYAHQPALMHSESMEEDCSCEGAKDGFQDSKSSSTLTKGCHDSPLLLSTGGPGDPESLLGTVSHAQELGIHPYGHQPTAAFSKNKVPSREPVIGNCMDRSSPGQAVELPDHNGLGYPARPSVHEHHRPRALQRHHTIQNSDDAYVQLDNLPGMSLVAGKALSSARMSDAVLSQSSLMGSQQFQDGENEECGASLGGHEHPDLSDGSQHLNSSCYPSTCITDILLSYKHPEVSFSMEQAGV
How it was run: as §1

[1] = system: LPS-induced TNFα in monocyte-derived macrophages (MdM); assay: MdM assay: LPS-triggered TNFα (ELISA); format: cell-based, human; details: Homo sapiens, Macrophage, 20 h, monocyte-derived macrophages, LPS 200 ng/mL, supernatant after 20 h; read-out: TNFα EC50
Description: This assay evaluates illustrative compounds of the invention for their inhibition of LPS-induced TNFα and LPS triggered IL-10 secretion in monocyte-derived macrophages.
PBMCs are isolated from human blood samples (buffycoats). The buffy coat is aseptically transferred into a 50 mL Falcon tube, and diluted 1/2 in PBS. Falcon tubes are filled with 20 mL Lymphoprep™, on top of which 25 mL of the buffy coat is carefully added, tubes are centrifuged for 35 min at 400 g in temperature controlled centrifuge, without brake, at 25° C. PBMCs are aspirated from the white interface layer between sample and Lymphoprep™. PBMCs are washed five times in PBS.
PBMCs are centrifuged at 300×g for 10 min and resuspended at a density of 1.0*10^7 cells/80 μL Miltenyi buffer (PBS, pH 7.4, 1% FBS, 2 mM EDTA).
Starting from this point of the protocol all steps are performed on ice. 20 μL of CD14+ micro-beads are added per 1.0*10^7 cells, the tube is mixed and incubated for 15 min in the fridge at 4° C. Cell suspension volume is adjusted to total volume of 100 mL using Miltenyi buffer, mixed gently and subsequently centrifuged for 10 min at 300×g. Supernantant is discarded and cell pellet is resuspended in 12 mL of Miltenyi buffer.
Four LS columns are placed in the MACS Separator (magnet) from Miltenyi Biotec, and are prewet by rinsing with 3 mL of MACS buffer per column. Three mL of cell suspension is added onto the column (max 1*10^8 of labelled cells/column), and columns are subsequently washed 3 times with 3 mL of Miltenyi buffer.
The columns are removed from the magnets, and 5 mL of Miltenyi buffer are added to the column to flush out the CD14+ fraction by pushing the plunger into the column. The flushed fractions are collected in a fresh 50 mL Falcon and volume is adjusted to 30 mL using Miltenyi buffer, cells are centrifuged for 10 min at 300×g. The obtained cell pellet is resuspended in 10 mL RPMI w/o FBS, and cell density is determined using a hematologic analyser (Sysmex XS-500i).
On day 10, MdMs are triggered and compound is added.
A compound dilution plate is made in 100% DMSO by 3-fold dilution of 10 mM stock solution. An intermediate dilution plate (10× final concentration) is made by diluting the compound dilution plate 50-fold in RPMI medium.
Medium is carefully removed from cell plates using multichannel pipette, and replaced by 80 μL fresh medium. 10 μL of the 10× final concentration compound is added to the cells and incubated for 1 hour at 37° C. before addition of trigger. No trigger conditions/trigger conditions are spiked with equal final DMSO concentrations of 0.2% DMSO. 10 μL of 10×LPS (final conc. 200 ng/mL) solution are added to all wells except for the ‘no trigger wells’ where 10 μL medium is added. Supernatant is collected after 2 h (IL-10 determination) and after 20 h (TNFα determination) of LPS triggering.
The plate is then washed once with PBST (PBS+0.05% Tween20) and once with PBS followed by the addition of 100 μL of blocking buffer (1% Bovine Serum Albumin (BSA)−5% Sucrose) and plates are sealed and incubated for at least 4 h at RT. After washing the plate once with PBST and once with PBS, 40 μL of standard or sample are added (TNFα standard curve is prepared using a 1/2 serial dilution starting from […]; dilutions are made in dilution buffer (PBS+1% BSA)). Plates are washed twice with PBST, and once with PBS, after which 35 μL of the detection antibody is added (final concentration 0.25 μg/mL diluted in dilution buffer) and plates are incubated for at least 2 h at RT. Plates are washed twice with PBST, and once with PBS, where after 35 μL of Strep-HRP conjugate (0.5 μg/mL final concentration diluted in dilution buffer) is added. Plates are incubated in the dark, at RT for at least 45 min but no longer than 1 hour. Plates are washed twice with PBST, and once with PBS.

T1 sequence (P57059 whole entry): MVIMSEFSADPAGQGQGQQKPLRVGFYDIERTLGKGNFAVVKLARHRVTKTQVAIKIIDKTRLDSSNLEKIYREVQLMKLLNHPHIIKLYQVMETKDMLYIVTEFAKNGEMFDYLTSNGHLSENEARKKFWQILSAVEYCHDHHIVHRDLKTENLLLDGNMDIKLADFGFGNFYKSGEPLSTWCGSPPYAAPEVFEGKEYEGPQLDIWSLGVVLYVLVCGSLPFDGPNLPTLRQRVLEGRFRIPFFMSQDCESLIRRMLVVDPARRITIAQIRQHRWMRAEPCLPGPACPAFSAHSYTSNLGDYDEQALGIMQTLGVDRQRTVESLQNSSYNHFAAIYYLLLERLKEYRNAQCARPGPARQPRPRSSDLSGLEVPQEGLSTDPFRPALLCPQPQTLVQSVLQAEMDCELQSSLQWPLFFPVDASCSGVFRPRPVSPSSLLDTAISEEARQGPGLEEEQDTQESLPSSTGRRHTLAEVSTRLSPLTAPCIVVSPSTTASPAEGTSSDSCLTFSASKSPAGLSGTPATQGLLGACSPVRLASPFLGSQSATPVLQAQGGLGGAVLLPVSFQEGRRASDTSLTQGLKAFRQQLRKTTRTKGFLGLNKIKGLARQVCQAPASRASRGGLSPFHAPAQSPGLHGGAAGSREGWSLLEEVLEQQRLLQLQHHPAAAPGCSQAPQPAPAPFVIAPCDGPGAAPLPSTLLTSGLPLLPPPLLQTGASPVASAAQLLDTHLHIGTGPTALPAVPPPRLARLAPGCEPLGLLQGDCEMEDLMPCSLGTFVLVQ

Compound | IC50 (SIK1) [nM] | IC50 (SIK2) [nM] | IC50 (SIK3) [nM] | EC50 [1] [nM]
COc1cc(-c2cnc3cc(OC[C@@H]4CC(F)(F)CN4C)ccn23)cc(OC(F)F)c1C(=O)NC1CC1 [Cpd 189, N-cyclopropyl-2-(difluoromethoxy)-4-[7-[[(2S)-4,4-difluoro-1-methyl-pyrrolidin-2-yl]methoxy]imidazo[1,2-a]pyridin-3-yl]-6-methoxy-benzamide] | 10 to 100 | 0.01 to 10 | 0.01 to 10 | 100 to 1000
COc1cc(-c2cnc3cc(OCc4nccn4C)ccn23)cc(OC(F)F)c1C(=O)NC1CC1 [compound 110, N-cyclopropyl-2-(difluoromethoxy)-6-methoxy-4-[7-[(1-methylimidazol-2-yl)methoxy]imidazo[1,2-a]pyridin-3-yl]benzamide] | 100 to 500 | 0.01 to 10 | 0.01 to 10 | 100 to 1000
COc1cc(-c2cnc3cc(OC[C@@H]4CCCCN4C)ccn23)cc(OC(F)F)c1C(=O)NC1CC1 [compound 139, N-cyclopropyl-2-(difluoromethoxy)-6-methoxy-4-[7-[[(2S)-1-methyl-2-piperidyl]methoxy]imidazo [1,2-a]pyridin-3-yl]benzamide] | 100 to 500 | 0.01 to 10 | 0.01 to 10 | 100 to 1000
COc1cc(-c2cnc3cc(OCC4CCO4)ccn23)cc(OC(F)F)c1C(=O)NC1CC1 (stereo not shown) [compound 35, N-cyclopropyl-2-(difluoromethoxy)-6-methoxy-4-[7-(oxetan-2-ylmethoxy)imidazo[1,2-a]pyridin-3-yl]benzamide] | 10 to 100 | 0.01 to 10 | 0.01 to 10 | 100 to 1000
COc1cc(-c2cnc3cc(OC[C@H]4COCCO4)ccn23)cc(OC(F)F)c1C(=O)NC1CC1 [compound 50, N-cyclopropyl-2-(difluoromethoxy)-4-[7-[[(2R)-1,4-dioxan-2-yl]methoxy]imidazo[1,2-a]pyridin-3-yl]-6-methoxy-benzamide] | 10 to 100 | 0.01 to 10 | 0.01 to 10 | 100 to 1000
COc1cc(-c2cnc3cc(OC4CC5CCC4C5)ccn23)cc(OC(F)F)c1C(=O)NC1CC1 (stereo not shown) [compound 58, N-cyclopropyl-2-(difluoromethoxy)-6-methoxy-4-(7-norbornan-2-yloxyimidazo[1,2-a]pyridin-3-yl)benzamide] | 10 to 100 | 10 to 100 | 0.01 to 10 | 1000 to 5000
COc1cc(-c2cnc3cc(OCC4(C)CCCCN4)ccn23)cc(OC(F)F)c1C(=O)NC1CC1 (stereo not shown) [compound 172, N-cyclopropyl-2-(difluoromethoxy)-6-methoxy-4-[7-[(2-methyl-2-piperidyl)methoxy]imidazo[1,2-a]pyridin-3-yl]benzamide] | 100 to 500 | 0.01 to 10 | 0.01 to 10 | 1000 to 5000
COc1cc(-c2cnc3cc(OCC4(N)CC4)ccn23)cc(OC(F)F)c1C(=O)NC1CC1 [compound 171, 4-[7-[(1-aminocyclopropyl)methoxy]imidazo[1,2-a]pyridin-3-yl]-N-cyclopropyl-2-(difluoromethoxy)-6-methoxy-benzamide] | 10 to 100 | 0.01 to 10 | 0.01 to 10 | –
COc1cc(-c2cnc3cc(Oc4ccccc4)ccn23)cc(OC(F)F)c1C(=O)NC1CC1 [compound 157, N-cyclopropyl-2-(difluoromethoxy)-6-methoxy-4-(7-phenoxyimidazo[1,2-a]pyridin-3-yl)benzamide] | 100 to 500 | 100 to 500 | 0.01 to 10 | –
COc1cc(-c2cnc3cc(OCC4CCCN(C=O)C4)ccn23)cc(OC(F)F)c1C(=O)NC1CC1 (stereo not shown) [compound 142, N-cyclopropyl-2-(difluoromethoxy)-4-[7-[(1-formyl-3-piperidyl)methoxy]imidazo [1,2-a]pyridin-3-yl]-6-methoxy-benzamide] | 0.01 to 10 | 0.01 to 10 | 0.01 to 10 | –
CCN(CC)CCOCCOc1ccn2c(-c3cc(OC)c(C(=O)NC4CC4)c(OC(F)F)c3)cnc2c1 [compound 307, N-cyclopropyl-4-[7-[2-[2-(diethylamino)ethoxy]ethoxy]imidazo[1,2-a]pyridin-3-yl]-2-(difluoromethoxy)-6-methoxy-benzamide] | 10 to 100 | 0.01 to 10 | 10 to 100 | –
COCCOc1ccn2c(-c3cc(OC)c(C(=O)NC4CC4)c(OC(F)F)c3)cnc2c1 [compound 70, N-cyclopropyl-2-(difluoromethoxy)-6-methoxy-4-[7-(2-methoxyethoxy)imidazo [1,2-a]pyridin-3-yl]benzamide] | 10 to 100 | 0.01 to 10 | 0.01 to 10 | –
COc1cc(-c2cnc3cc(OCCN4CCS(=O)(=O)CC4)ccn23)cc(OC(F)F)c1C(=O)NC1CC1 [compound 22, N-cyclopropyl-2-(difluoromethoxy)-4-[7-[2-(1,1-dioxo-1,4-thiazinan-4-yl)ethoxy]imidazo[1,2-a]pyridin-3-yl]-6-methoxy-benzamide] | 10 to 100 | 0.01 to 10 | 0.01 to 10 | –
COc1cc(-c2cnc3cc(OCC4CCCCN4S(C)(=O)=O)ccn23)cc(OC(F)F)c1C(=O)NC1CC1 (stereo not shown) [Cpd 129, N-cyclopropyl-2-(difluoromethoxy)-6-methoxy-4-[7-[(1-methylsulfonyl-2-piperidyl)methoxy]imidazo[1,2-a]pyridin-3-yl]benzamide] | 0.01 to 10 | 0.01 to 10 | 0.01 to 10 | –
COc1cc(-c2cnc3cc(OCc4ccccc4)ncn23)cc(OC(F)F)c1C(=O)NC1CC1 [Cpd 159, 4-(7-benzyloxyimidazo[1,2-c]pyrimidin-3-yl)-N-cyclopropyl-2-(difluoromethoxy)-6-methoxy-benzamide] | 100 to 500 | 10 to 100 | 0.01 to 10 | –
COc1cc(-c2cnc3cc(OCc4cccnc4)ccn23)cc(OC(F)F)c1C(=O)NC1CC1 [compound 43, N-cyclopropyl-2-(difluoromethoxy)-6-methoxy-4-[7-(3-pyridylmethoxy)imidazo [1,2-a]pyridin-3-yl]benzamide] | 10 to 100 | 0.01 to 10 | 0.01 to 10 | –
COc1cc(-c2cnc3cc(OC4CC5(COC5)C4)ccn23)cc(OC(F)F)c1C(=O)NC1CC1 [compound 162, N-cyclopropyl-2-(difluoromethoxy)-6-methoxy-4-[7-(2-oxaspiro[3.3]heptan-6-yloxy)imidazo[1,2-a]pyridin-3-yl]benzamide] | 10 to 100 | 10 to 100 | 0.01 to 10 | –
COc1cc(-c2cnc3cc(OCCNc4ncccn4)ccn23)cc(OC(F)F)c1C(=O)NC1CC1 [compound 368, N-cyclopropyl-2-(difluoromethoxy)-6-methoxy-4-[7-[2-(pyrimidin-2-ylamino)ethoxy]imidazo [1,2-a]pyridin-3-yl]benzamide] | 0.01 to 10 | 0.01 to 10 | 0.01 to 10 | –
